Measurements published in PubChem BioAssay (NCI).
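Compound exposure: 48 hours, 5 concentrations, 96-well plates. TGI: total growth inhibition.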

Tests used:
Experiment in all cases: NCI-60 cell line screen, 48 h
HCT-15 colon = test system: HCT-15 colon
HL-60(TB) leukemia = test system: HL-60(TB) leukemia
MDA-N = test system: MDA-N
BT-549 breast = test system: BT-549 breast
TK-10 renal = test system: TK-10 renal
MDA-MB-231 breast = test system: MDA-MB-231 breast
T-47D breast = test system: T-47D breast
M14 melanoma = test system: M14 melanoma
A549 NSCLC = test system: A549 NSCLC
OVCAR-8 ovarian = test system: OVCAR-8 ovarian
HCC-2998 colon = test system: HCC-2998 colon
OVCAR-5 ovarian = test system: OVCAR-5 ovarian
NCI-H460 lung = test system: NCI-H460 lung
HOP-92 NSCLC = test system: HOP-92 NSCLC
DU-145 prostate = test system: DU-145 prostate
SF-539 CNS = test system: SF-539 CNS
RPMI-8226 leukemia = test system: RPMI-8226 leukemia
SF-268 CNS = test system: SF-268 CNS
MALME-3M melanoma = test system: MALME-3M melanoma
CCRF-CEM leukemia = test system: CCRF-CEM leukemia
OVCAR-4 ovarian = test system: OVCAR-4 ovarian
SK-OV-3 ovarian = test system: SK-OV-3 ovarian
HCT-116 colon = test system: HCT-116 colon
SK-MEL-5 melanoma = test system: SK-MEL-5 melanoma
RXF 393 renal = test system: RXF 393 renal
PC-3 prostate = test system: PC-3 prostate
HOP-62 NSCLC = test system: HOP-62 NSCLC
K-562 leukemia = test system: K-562 leukemia
LOX IMVI melanoma = test system: LOX IMVI melanoma
SNB-75 CNS = test system: SNB-75 CNS
NCI/ADR-RES ovarian = test system: NCI/ADR-RES ovarian
UACC-62 melanoma = test system: UACC-62 melanoma
IGROV1 ovarian = test system: IGROV1 ovarian
EKVX NSCLC = test system: EKVX NSCLC
NCI-H23 lung = test system: NCI-H23 lung
NCI-H522 lung = test system: NCI-H522 lung
MDA-MB-435 = test system: MDA-MB-435
SK-MEL-2 melanoma = test system: SK-MEL-2 melanoma
OVCAR-3 ovarian = test system: OVCAR-3 ovarian
UACC-257 melanoma = test system: UACC-257 melanoma
ACHN renal = test system: ACHN renal
KM12 colon = test system: KM12 colon
SNB-19 CNS = test system: SNB-19 CNS
CAKI-1 renal = test system: CAKI-1 renal
786-0 renal = test system: 786-0 renal
U251 CNS = test system: U251 CNS
UO-31 renal = test system: UO-31 renal
SW-620 colon = test system: SW-620 colon
MCF7 breast = test system: MCF7 breast
SF-295 CNS = test system: SF-295 CNS
NCI-H226 lung = test system: NCI-H226 lung
HS 578T breast = test system: HS 578T breast
COLO 205 colon = test system: COLO 205 colon
MOLT-4 leukemia = test system: MOLT-4 leukemia
SN12C renal = test system: SN12C renal
SK-MEL-28 melanoma = test system: SK-MEL-28 melanoma
SR leukemia = test system: SR leukemia
A498 renal = test system: A498 renal
HT29 colon = test system: HT29 colon

Ic1cccc(/C=C/CN2CCN(CCOC(c3ccccc3)c3ccccc3)CC2)c1
TGI (HCT-15 colon): 34.4 µM | TGI (HL-60(TB) leukemia): 30.9 µM | TGI (MDA-N): 41.9 µM | TGI (BT-549 breast): 31.4 µM | TGI (TK-10 renal): 31.6 µM | TGI (MDA-MB-231 breast): 32.4 µM | TGI (T-47D breast): 33.3 µM | TGI (M14 melanoma): 38.8 µM | TGI (A549 NSCLC): 45 µM | TGI (OVCAR-8 ovarian): 30 µM | TGI (HCC-2998 colon): 20.4 µM | TGI (OVCAR-5 ovarian): 36.9 µM | TGI (NCI-H460 lung): 32.4 µM | TGI (HOP-92 NSCLC): 29.4 µM | TGI (DU-145 prostate): 28.3 µM | TGI (SF-539 CNS): 39.8 µM | TGI (RPMI-8226 leukemia): 14.3 µM | TGI (SF-268 CNS): > 100 µM | TGI (MALME-3M melanoma): 39.3 µM | TGI (CCRF-CEM leukemia): 32.4 µM | TGI (OVCAR-4 ovarian): 51.1 µM | TGI (SK-OV-3 ovarian): 63.4 µM | TGI (HCT-116 colon): 26.8 µM | TGI (SK-MEL-5 melanoma): 32.2 µM | TGI (RXF 393 renal): 27.5 µM | TGI (PC-3 prostate): 66.3 µM | TGI (HOP-62 NSCLC): 32.6 µM | TGI (K-562 leukemia): 23.9 µM | TGI (LOX IMVI melanoma): 26.8 µM | TGI (SNB-75 CNS): 37.6 µM | TGI (NCI/ADR-RES ovarian): 34.7 µM | TGI (UACC-62 melanoma): 37.4 µM | TGI (IGROV1 ovarian): 40.9 µM | TGI (EKVX NSCLC): 41.4 µM | TGI (NCI-H23 lung): 40 µM | TGI (NCI-H522 lung): 36.8 µM | TGI (MDA-MB-435): 30.4 µM | TGI (SK-MEL-2 melanoma): 38.3 µM | TGI (OVCAR-3 ovarian): 32.4 µM | TGI (UACC-257 melanoma): 31.4 µM | TGI (ACHN renal): > 100 µM | TGI (KM12 colon): 31 µM | TGI (SNB-19 CNS): 34.9 µM | TGI (CAKI-1 renal): 41.4 µM | TGI (786-0 renal): 33.7 µM | TGI (U251 CNS): 29.7 µM | TGI (UO-31 renal): 29 µM | TGI (SW-620 colon): > 100 µM | TGI (MCF7 breast): 30.5 µM | TGI (SF-295 CNS): 33.1 µM | TGI (NCI-H226 lung): 40.2 µM | TGI (HS 578T breast): 76.2 µM | TGI (COLO 205 colon): 65.1 µM | TGI (MOLT-4 leukemia): 35.9 µM | TGI (SN12C renal): 29.6 µM | TGI (SK-MEL-28 melanoma): 50.1 µM | TGI (SR leukemia): 28.9 µM | TGI (A498 renal): 31.7 µM | TGI (HT29 colon): 30.3 µM
